Molecules are shown by their SMILES.

T1 sequence (P43119 whole entry): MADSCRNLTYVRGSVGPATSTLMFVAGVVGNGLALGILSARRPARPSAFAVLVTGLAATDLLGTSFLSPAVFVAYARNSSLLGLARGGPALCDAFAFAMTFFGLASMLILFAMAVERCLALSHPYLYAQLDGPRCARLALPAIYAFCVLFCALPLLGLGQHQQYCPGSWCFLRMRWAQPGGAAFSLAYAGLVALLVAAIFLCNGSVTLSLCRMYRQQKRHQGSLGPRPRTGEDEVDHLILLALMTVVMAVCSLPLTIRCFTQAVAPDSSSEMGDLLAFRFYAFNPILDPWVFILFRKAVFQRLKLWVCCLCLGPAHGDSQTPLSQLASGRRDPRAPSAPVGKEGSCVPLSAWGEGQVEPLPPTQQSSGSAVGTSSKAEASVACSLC

The experiment addresses T1, IP receptor (Homo sapiens, UniProt P43119).
T1 construct: expressed in transfected cells; host or cells: CHO cells stably expressing the IP receptor (CHO-IP)
The experiment in a line: cAMP accumulation in CHO cells stably expressing the IP receptor (CHO-IP), Perkin Elmer AlphaScreen assay. The class given is cell-based. To be noted: agonist activity, 1 hour at room temperature. The method, then:
Activity of compounds at the IP receptor (IP receptor) is assessed by measuring cAMP accumulation in CHO cells stably expressing the IP receptor (CHO-IP) using the Perkin Elmer AlphaScreen assay. This technology measures the endogenous production of cAMP, in a non-radioactive luminescence proximity homogenous assay. A biological reaction occurs between streptavidin coated donor beads, biotinylated cAMP and anti-cAMP acceptor beads, bringing the donor and acceptor beads close enough together so that upon excitation a fluorescence signal is produced. On production of endogenous cAMP, competition between the biotinylated cAMP and cellular-derived cAMP causes a reduction in the fluorescent signal. The reduction in signal is proportional to the amount of cAMP being produced, thus it is possible to quantify the amount of cAMP being produced on stimulation with agonist.
Test and reference compounds are prepared at 100× [final] in 100% DMSO, and diluted 1:3 using a Biomek Fx (Beckman Coulter). This is followed by an intermediate dilution to give 5× [final] in assay buffer (HBSS containing 5 mM HEPES, 0.1% (w/v) BSA). 5 μL of 5× [final] test compounds, reference compounds and buffer/DMSO control are then transferred to a 384-well white OptiPlate, containing 20 μL CHO-IP cell suspension (15,000 cells/well, prepared from frozen), and plate is incubated at room temperature for 1 hour. A cAMP standard curve is constructed for each experiment (concentration range of 10000 nM to 0.001 nM, in assay buffer) and 25 μL of each concentration added to the last two columns of the assay plate. The incubation is terminated by the addition of lysis buffer (dH2O; 0.3% (v v^−1) Tween-20) containing 20 units mL^−1 streptavidin coated donor beads and biotinylated cAMP (pre-incubated for 30 minutes) and 20 units mL^−1 anti-cAMP acceptor beads, which are added to the lysis buffer just before addition to the assay plate. The assay plate is then incubated at room temperature in the dark, for 60 minutes with gentle shaking, and read on the Envision plate reader (Perkin Elmer).
The raw data of the reference compounds, test compounds and controls are converted into cAMP concentrations, using the cAMP standard curve, in Graph Pad Prism (Graph Pad Software Inc). EC50 as well as maximal values of the agonist curves are determined using a 4-parameter logistic equation. The % maximum response values of all test compounds are determined using the top of the treprostinil concentration-response curve.
The EC50 is the midpoint of the concentration-response curve. High values mean lower potency in that assay, low ones higher potency in that assay. Consider `Cc1ccc(-c2nc3c(nc2-c2ccc(C)cc2)N(CCCCCCC(=O)Nc2ccccc2)CCC3)cc1` [Example 12.5, 7-(2,3-Di-p-tolyl-7,8-dihydropyrido[2,3-b]pyrazin-5(6H)-yl)-N-phenylheptanamide], for which the midpoint of the response, the EC50, lay at 40.7 nM.
For `Cc1ccc(-c2nc3c(nc2-c2ccc(C)cc2)N(CCCCCCC(=O)O)C(=O)C(C(C)(C)O)C3)cc1` (single isomer, unassigned) [1.1(ii), (R)-7-(7-(2-hydroxypropan-2-yl)-6-oxo-2,3-di-p-tolyl-7,8-dihydropyrido[2,3-b]pyrazin-5(6H)-yl)heptanoic acid or (S)-7-(7-(2-hydroxypropan-2-yl)-6-oxo-2,3-di-p-tolyl-7,8-dihydropyrido[2,3-b]pyrazin-5(6H)-yl)heptanoic acid], it took 0.6 nM to reach a half-maximal effect (EC50).
The value for `Cc1ccc(-c2nc3c(nc2-c2ccccc2C)N(CCCCCCC(=O)O)CCC3)cc1` [Example 2.5, 7-(3-o-Tolyl-2-p-tolyl-7,8-dihydropyrido[3,2-b]pyrazin-5(6H)-yl)heptanoic acid] was 3.9 nM; that for `Cc1ccc(-c2nc3c(nc2-c2ccc(C)cc2)N(CCCCCCC(=O)NS(=O)(=O)C(C)C)CCC3)cc1` [Example 13.5, 7-(2,3-Di-p-tolyl-7,8-dihydropyrido[2,3-b]pyrazin-5(6H)-yl)-N-(isopropylsulfonyl) heptanamide] was 5 nM.
For `Cc1ccc(-c2nc3c(nc2-c2ccc(Cl)cc2)N(CCCCCCC(=O)O)C(=O)CC3)cc1` [Example 7.3, 7-(3-(4-Chlorophenyl)-6-oxo-2-p-tolyl-7,8-dihydropyrido[2,3-b]pyrazin-5(6H)-yl)heptanoic acid], the EC50 was found to be 0.3 nM.
With `Cc1ccc(-c2nc3c(nc2-c2ccc(C)cc2)N(CCCCCCCC(=O)O)C(=O)CC3)cc1` [Example 1.2, 8-(6-Oxo-2,3-di-p-tolyl-7,8-dihydropyrido[2,3-b]pyrazin-5(6H)-yl)octanoic acid], the EC50 came out at 1.9 nM.
For the compound `Cc1ccc(-c2nc3c(nc2-c2ccc(C)cc2)N(CCCCCC(=O)O)CCC3)cc1` [Example 10, 6-(2,3-Di-p-tolyl-7,8-dihydropyrido[2,3-b]pyrazin-5(6H)-yl)hexanoic acid], the EC50 amounted to 0.3 nM.
Consider `Cc1ccc(-c2nc3c(nc2-c2ccccc2)CCC(C)N3CCCCCCC(=O)O)cc1` (stereo not drawn) [Example 2.4, 7-(6-Methyl-2-phenyl-3-p-tolyl-7,8-dihydropyrido[2,3-b]pyrazin-5(6H)-yl)heptanoic acid], for which the concentration for a half-maximal effect (EC50) turned out to be 2.4 nM.
In turn, `Cc1ccc(-c2nc3c(nc2-c2ccc(C)cc2)N(CCCCCCC(=O)O)CC(C(C)(C)O)C3)cc1` (single isomer, unassigned) [9.2(i), (R)-7-(7-(2-hydroxypropan-2-yl)-2,3-di-p-tolyl-7,8-dihydropyrido[2,3-b]pyrazin-5(6H)-yl)heptanoic acid or (S)-7-(7-(2-hydroxypropan-2-yl)-2,3-di-p-tolyl-7,8-dihydropyrido[2,3-b]pyrazin-5(6H)-yl)heptanoic acid] returned an EC50 of 12.7 nM.
`Cc1ccc(-c2nc3c(nc2-c2cccc(F)c2)CCCN3CCCCCCC(=O)O)cc1` [Example 2.9, 7-(2-(3-Fluorophenyl)-3-p-tolyl-7,8-dihydropyrido[2,3-b]pyrazin-5(6H)-yl)heptanoic acid] displayed an EC50 of 0.1 nM.
In the case of `CNC(=O)CCCCCCN1CCCc2nc(-c3ccc(C)cc3)c(-c3ccc(C)cc3)nc21` [Example 12.4, 7-(2,3-Di-p-tolyl-7,8-dihydropyrido[2,3-b]pyrazin-5(6H)-yl)-N-methylheptanamide] it was 12.1 nM; in that of `COC1(C)CCN(CCCCCCC(=O)O)c2nc(-c3ccc(C)cc3)c(-c3ccc(C)cc3)nc21` (single isomer, unassigned) [Example 15b, (R)-7-(8-Methoxy-8-methyl-2,3-di-p-tolyl-7,8-dihydropyrido[2,3-b]pyrazin-5(6H)-yl)heptanoic acid or (S)-7-(8-Methoxy-8-methyl-2,3-di-p-tolyl-7,8-dihydropyrido[2,3-b]pyrazin-5(6H)-yl)heptanoic acid], 3.6 nM; in that of `O=C(O)CCCCCCN1CCCc2nc(-c3ccc(F)cc3F)c(-c3ccc(F)cc3F)nc21` [Example 4, 7-(2,3-Bis(2,4-difluorophenyl)-7,8-dihydropyrido[2,3-b]pyrazin-5(6H)-yl)heptanoic acid], 0.7 nM.
In the case of `COC1(C)CCN(CCCCCCC(=O)O)c2nc(-c3ccc(C)cc3)c(-c3ccc(C)cc3)nc21` (racemic) [Example 15, rac-7-(8-Methoxy-8-methyl-2,3-di-p-tolyl-7,8-dihydropyrido[2,3-b]pyrazin-5(6H)-yl)heptanoic acid] it was 0.3 nM; in that of `COC1(C)CCN(CCCCCCC(=O)O)c2nc(-c3ccc(C)cc3)c(-c3ccc(C)cc3)nc21` (single isomer, unassigned) [Example 15a, (R)-7-(8-Methoxy-8-methyl-2,3-di-p-tolyl-7,8-dihydropyrido[2,3-b]pyrazin-5(6H)-yl)heptanoic acid or (S)-7-(8-Methoxy-8-methyl-2,3-di-p-tolyl-7,8-dihydropyrido[2,3-b]pyrazin-5(6H)-yl)heptanoic acid], 1.1 nM.
In turn, `CCC1CCc2nc(-c3ccc(C)cc3)c(-c3ccc(C)cc3)nc2N1CCCCCCC(=O)O` (single isomer, unassigned) [2.3(i), (R)-7-(6-Ethyl-2,3-di-p-tolyl-7,8-dihydropyrido[2,3-b]pyrazin-5(6H)-yl)heptanoic acid or (S)-7-(6-Ethyl-2,3-di-p-tolyl-7,8-dihydropyrido[2,3-b]pyrazin-5(6H)-yl)heptanoic acid] displayed a half-maximal effective concentration (EC50) of 4.8 nM.
For `Cc1ccc(-c2nc3c(nc2-c2ccc(C)cc2)N(CCCCCCC(=O)NS(=O)(=O)Cc2ccccc2)CCC3)cc1` [Example 12, N-(Benzylsulfonyl)-7-(2,3-di-p-tolyl-7,8-dihydropyrido[2,3-b]pyrazin-5(6H)-yl)heptanamide], the midpoint of the response, the EC50, lay at 5.9 nM.
Take `CONC(=O)CCCCCCN1CCCc2nc(-c3ccc(C)cc3)c(-c3ccc(C)cc3)nc21` [Example 12.6, 7-(2,3-Di-p-tolyl-7,8-dihydropyrido[2,3-b]pyrazin-5(6H)-yl)-N-methoxyheptanamide]: a half-maximal response (EC50) required 4.7 nM.
As for `Cc1ccc(-c2nc3c(nc2-c2ccc(C)cc2)N(CCCCC(O)CC(=O)O)CCC3)cc1` (single isomer, unassigned) [Example 17b, (R)-7-(2,3-Di-p-tolyl-7,8-dihydropyrido[2,3-b]pyrazin-5(6H)-yl)-3-hydroxyheptanoic acid or (S)-7-(2,3-Di-p-tolyl-7,8-dihydropyrido[2,3-b]pyrazin-5(6H)-yl)-3-hydroxyheptanoic acid], it took 1.8 nM to reach a half-maximal effect (EC50).
Consider `Cc1ccc(-c2nc3c(nc2-c2ccc(C)cc2)N(CCCCCCC(=O)NS(=O)(=O)Cc2ccccc2)CCC3O)cc1` (single isomer, unassigned) [Example 13.2, (R)—N-(benzylsulfonyl)-7-(8-hydroxy-2,3-di-p-tolyl-7,8-dihydropyrido[3,2-b]pyrazin-5(6H)-yl)heptanamide or (S)—N-(benzylsulfonyl)-7-(8-hydroxy-2,3-di-p-tolyl-7,8-dihydropyrido[3,2-b]pyrazin-5(6H)-yl)heptanamide], for which the EC50 came to 510 nM.
Regarding `Cc1ccc(-c2nc3c(nc2-c2ccc(C)cc2)N(CCCCCCCCC(=O)O)CCC3)cc1` [Example 9.1, 9-(2,3-Di-p-tolyl-7,8-dihydropyrido[2,3-b]pyrazin-5(6H)-yl)nonanoic acid], the concentration for a half-maximal effect (EC50) amounted to 0.6 nM.
`Cc1ccc(-c2nc3c(nc2-c2ccc(C)cc2)N(CCCCCCC(=O)NCc2ccccc2)CCC3)cc1` [Example 12.1, N-Benzyl-7-(2,3-di-p-tolyl-7,8-dihydropyrido[2,3-b]pyrazin-5(6H)-yl)heptanamide] came in with an EC50 of 40.2 nM.
Take `Cc1ccc(-c2nc3c(nc2-c2ccc(C)cc2)N(CCCCCCC(=O)NO)CCC3)cc1` [Example 12.9, 7-(2,3-Di-p-tolyl-7,8-dihydropyrido[2,3-b]pyrazin-5(6H)-yl)-N-hydroxyheptanamide]: the response was half-maximal at 0.4 nM (EC50).
Consider `Cc1ccc(-c2nc3c(nc2-c2ccc(C)cc2)N(CCCCCCC(=O)NS(=O)(=O)c2ccccc2)CCC3)cc1` [Example 12.2, 7-(2,3-Di-p-tolyl-7,8-dihydropyrido[2,3-b]pyrazin-5(6H)-yl)-N-(phenylsulfonyl) heptanamide], for which the EC50 was 6.4 nM.

Values taken from US9115129B2, “Substituted pyrido[2,3-B]pyrazines as IP receptor agonists” (Novartis AG, priority 2012, dated 2015).
